Experimental data taken from ChEMBL document CHEMBL3124779, “Discovery of ABT-267, a pan-genotypic inhibitor of HCV NS5A” (J Med Chem, 2014).

Tests used:
Hepatitis C virus [1] = experiment: Antiviral activity against HCV1b Con1 infected in human HuH7 cells assessed as inhibition of viral replication after 4 days by luciferase reporter gene assay in presence of 40% human plasma; assay type: functional, organism-based, Hepacivirus hominis; conditions: isolate Con1, Huh-7, Plasma, 96 h
Hepatitis C virus [2] = experiment: Antiviral activity against HCV1b Con1 infected in human HuH7 cells assessed as inhibition of viral replication after 4 days by luciferase reporter gene assay; assay type: functional, organism-based, Hepacivirus hominis; conditions: isolate Con1, Huh-7, 96 h
Hepatitis C virus [3] = experiment: Antiviral activity against HCV1a H77 infected in human HuH7 cells assessed as inhibition of viral replication after 4 days by luciferase reporter gene assay; assay type: functional, organism-based, Hepacivirus hominis; conditions: genotype 1a H77, Huh-7, 96 h
Hepatitis C virus [4] = experiment: Antiviral activity against HCV1a H77 infected in human HuH7 cells assessed as inhibition of viral replication after 4 days by luciferase reporter gene assay in presence of 40% human plasma; assay type: functional, organism-based, Hepacivirus hominis; conditions: genotype 1a H77, Huh-7, Plasma, 96 h
Hepatitis C virus [5] = experiment: Ratio of EC50 for HCV1a H77 infected in human HuH7 cells in presence of 40% human plasma to EC50 for HCV1a H77 infected in human HuH7 cells in absence of 40% human plasma; assay type: functional, Hepacivirus hominis, genotype 1a H77, Huh-7
Hepatitis C virus [6] = experiment: Ratio of EC50 for HCV1b Con1 infected in human HuH7 cells in presence of 40% human plasma to EC50 for HCV1b Con1 infected in human HuH7 cells in absence of 40% human plasma; assay type: functional, Hepacivirus hominis, isolate Con1, Huh-7

| SMILES | EC50 (Hepatitis C virus [1]) [nM] | EC50 (Hepatitis C virus [2]) [nM] | EC50 (Hepatitis C virus [3]) [nM] | EC50 (Hepatitis C virus [4]) [nM] | Ratio EC50 (Hepatitis C virus [5]) | Ratio EC50 (Hepatitis C virus [6]) |
| --- | --- | --- | --- | --- | --- | --- |
| COC(=O)N[C@H](C(=O)N1CCC[C@H]1C(=O)Nc1ccc([C@H]2CC[C@@H](c3ccc(NC(=O)[C@@H]4CCCN4C(=O)[C@@H](NC(=O)OC)C(C)(C)C)cc3)N2c2ccc(F)cc2)cc1)C(C)(C)C | 0.278 | 0.032 | 6.22 | 103 | 17 | 9 |
| CC[C@H](NC(=O)OC)C(=O)N1CCC[C@H]1C(=O)Nc1ccc([C@@H]2CC[C@@H](c3ccc(NC(=O)[C@@H]4CCCN4C(=O)[C@H](CC)NC(=O)OC)cc3)N2c2ccc(F)cc2)cc1 | 1 | 0.14 | 4.6 | 34 | 7 | 7 |
| COC(=O)N[C@H](C(=O)N1CCC[C@H]1C(=O)Nc1ccc([C@@H]2CC[C@@H](c3ccc(NC(=O)[C@@H]4CCCN4C(=O)[C@@H](NC(=O)OC)C(C)C)cc3)N2c2ccc(OC)cc2)cc1)C(C)C | 0.447 | 0.076 | 0.992 | 5.92 | 6 | 6 |
| COC(=O)N[C@H](C(=O)N1CCC[C@H]1C(=O)Nc1ccc([C@@H]2CC[C@@H](c3ccc(NC(=O)[C@@H]4CCCN4C(=O)[C@@H](NC(=O)OC)C(C)(C)C)cc3)N2c2ccc(C(F)(F)F)cc2)cc1)C(C)(C)C | 0.211 | 0.0088 | 0.099 | 4.14 | 42 | 24 |
| COC(=O)N[C@H](C(=O)N1CCC[C@H]1C(=O)Nc1ccc([C@H]2CC[C@H](c3ccc(NC(=O)[C@@H]4CCCN4C(=O)[C@@H](NC(=O)OC)C(C)(C)C)cc3)N2c2ccc(C(F)(F)F)cc2)cc1)C(C)(C)C | 0.184 | 0.011 | 0.829 | 14.3 | 17 | 17 |
| COC(=O)N[C@H](C(=O)N1CCC[C@H]1C(=O)Nc1ccc([C@H]2CC[C@H](c3ccc(NC(=O)[C@@H]4CCCN4C(=O)[C@@H](NC(=O)OC)C(C)C)cc3)N2c2ccc(C3CC3)cc2)cc1)C(C)C | 0.114 | 0.0087 | 0.164 | 1.68 | 10 | 13 |
| COC(=O)N[C@H](C(=O)N1CCC[C@H]1C(=O)Nc1ccc([C@@H]2CC[C@@H](c3ccc(NC(=O)[C@@H]4CCCN4C(=O)[C@@H](NC(=O)OC)C(C)C)cc3)N2c2ccc(C(C)(C)CO)cc2)cc1)C(C)C | 0.948 | 0.095 | 0.116 | 1.47 | 13 | 10 |
| COC(=O)N[C@H](C(=O)N1CCC[C@H]1C(=O)Nc1ccc([C@H]2CC[C@H](c3ccc(NC(=O)[C@@H]4CCCN4C(=O)[C@@H](NC(=O)OC)C(C)(C)C)cc3)N2c2ccc(S(C)(=O)=O)cc2)cc1)C(C)(C)C | 3.42 | 0.226 | 0.659 | 27.6 | 42 | 15 |
| COC(=O)N[C@H](C(=O)N1CCC[C@H]1C(=O)Nc1ccc([C@@H]2CC[C@@H](c3ccc(NC(=O)[C@@H]4CCCN4C(=O)[C@@H](NC(=O)OC)C(C)C)cc3)N2c2ccc(-c3cccnc3)cc2)cc1)C(C)C | 0.597 | 0.069 | 0.143 | 2.57 | 18 | 9 |
| COC(=O)N[C@H](C(=O)N1CCC[C@H]1C(=O)Nc1ccc([C@H]2CC[C@H](c3ccc(NC(=O)[C@@H]4CCCN4C(=O)[C@@H](NC(=O)OC)C(C)(C)C)cc3)N2c2ccc(N3CCOCC3)cc2)cc1)C(C)(C)C | 1.6 | 0.211 | 1.24 | 11.2 | 9 | 8 |
| COC(=O)N[C@H](C(=O)N1CCC[C@H]1C(=O)Nc1ccc(CN(Cc2ccc(NC(=O)[C@@H]3CCCN3C(=O)[C@@H](NC(=O)OC)C(C)C)cc2)c2ccc(F)cc2)cc1)C(C)C |  | 0.4 | 38 |  |  |  |
| COC(=O)N[C@H](C(=O)N1CCC[C@H]1C(=O)Nc1ccc([C@@H]2CC[C@@H](c3ccc(NC(=O)[C@@H]4CCCN4C(=O)[C@@H](NC(=O)OC)C(C)C)cc3)N2)cc1)C(C)C |  | 282 | 253 |  |  |  |
| COC(=O)N[C@H](C(=O)N1CCC[C@H]1C(=O)Nc1ccc([C@H]2CC[C@@H](c3ccc(NC(=O)[C@@H]4CCCN4C(=O)[C@@H](NC(=O)OC)C(C)C)cc3)N2c2ccc(F)cc2)cc1)C(C)C | 0.3 | 0.09 | 22 | 81 | 4 | 3 |
| COC(=O)N[C@H](C(=O)N1CCC[C@H]1C(=O)Nc1ccc([C@@H]2CC[C@@H](c3ccc(NC(=O)[C@@H]4CCCN4C(=O)[C@@H](NC(=O)OC)c4ccccc4)cc3)N2c2ccc(F)cc2)cc1)c1ccccc1 (mixture of isomers) | 0.073 | 0.002 | 1.06 | 22.8 | 22 | 37 |
| COC(=O)N[C@H](C(=O)N1CCC[C@H]1C(=O)Nc1ccc([C@@H]2CC[C@@H](c3ccc(NC(=O)[C@@H]4CCCN4C(=O)[C@@H](NC(=O)OC)C(C)(C)O)cc3)N2c2ccc(F)cc2)cc1)C(C)(C)O (mixture of isomers) | 2.6 | 0.05 | 0.6 | 18 | 30 | 52 |
| COC(=O)N[C@H](C(=O)N1CCC[C@H]1C(=O)Nc1ccc([C@@H]2CC[C@@H](c3ccc(NC(=O)[C@@H]4CCCN4C(=O)[C@@H](NC(=O)OC)C(C)C)cc3)N2c2ccc(Cl)cc2)cc1)C(C)C (mixture of isomers) | 0.3 | 0.03 | 0.37 | 4.07 | 11 | 10 |
| COC(=O)N[C@H](C(=O)N1CCC[C@H]1C(=O)Nc1ccc([C@@H]2CC[C@@H](c3ccc(NC(=O)[C@@H]4CCCN4C(=O)[C@@H](NC(=O)OC)C(C)C)cc3)N2c2ccc(Br)cc2)cc1)C(C)C (mixture of isomers) | 0.089 | 0.0068 | 0.286 | 4.46 | 16 | 13 |
| COC(=O)N[C@H](C(=O)N1CCC[C@H]1C(=O)Nc1ccc([C@@H]2CC[C@@H](c3ccc(NC(=O)[C@@H]4CCCN4C(=O)[C@@H](NC(=O)OC)C(C)C)cc3)N2c2ccc(O)cc2)cc1)C(C)C (mixture of isomers) | 59.5 | 6.54 | 23 | 242 | 11 | 9 |
| COC(=O)N[C@H](C(=O)N1CCC[C@H]1C(=O)Nc1ccc([C@@H]2CC[C@@H](c3ccc(NC(=O)[C@@H]4CCCN4C(=O)[C@@H](NC(=O)OC)C(C)C)cc3)N2c2ccc(C(C)C)cc2)cc1)C(C)C (mixture of isomers) | 0.086 | 0.0079 | 0.033 | 0.706 | 21 | 11 |
| COC(=O)N[C@H](C(=O)N1CCC[C@H]1C(=O)Nc1ccc([C@@H]2CC[C@@H](c3ccc(NC(=O)[C@@H]4CCCN4C(=O)[C@@H](NC(=O)OC)C(C)C)cc3)N2c2ccc(-c3ccccc3)cc2)cc1)C(C)C (mixture of isomers) | 0.256 | 0.011 | 0.89 | 1.69 | 19 | 23 |
